Laboratory results published in patent US10124012B2, “Method for treatment of hyperglycemia and hyperlipidemia” (priority 2016, dated 2018).

Legend:
[1] = tested on: high-fat diet-fed C57BL/6J mouse; assay: Histopathology of liver (hepatocellular ballooning); format: in vivo, C57BL/6J mice; details: grade 0 absence, 1 few cells, 2 many cells (Table 4), HFD-fed mice
Experimental: Animal studies were performed and approved under the guidelines of the Institutional Animal Care and Use Committee in Taiwan (12 Mar. 2015). The 4-week old male C57BL/6J mice (total amount n=63) were obtained from the National Laboratory Animal Center (Taipei, Taiwan). After acclimatization for one week, all of the mice were randomly assigned into a control (CON) group and a high-fat diet (HFD) group. For the following 12 weeks, the CON group (n=9) received a control diet or a low-fat diet (Diet 12450B, Research Diets, Inc., New Brunswick, N.J., USA), while the HFD group (n=54) received a high-fat diet (Diet 12451, Research Diets, New Brunswick, N.J., USA). The low-fat diet was composed of protein 20%, carbohydrate 70% and fat 10%, whereas the high-fat diet was composed of protein 20%, carbohydrate 35%, and fat 45% (of total energy, % kcal). After HFD feeding for 8 weeks, the HFD group was randomly subdivided into six groups (n=9 per group) receiving different treatments and fed on HFD. […] The HF+AnK1, HF+AnK2, and HF+AnK3 groups are collectively termed AnK-treated HFD groups in the following examples. The CON mice were administered vehicle. All treatments were administered via oral gavage once daily. After administration for 4 weeks, all mice were fasted 12 hours, and blood was collected from the retro-orbital sinus under ether anesthesia. At the end of the experiment, the mice were sacrificed via carbon dioxide inhalation. Liver, adipose tissue, and skeletal muscle were collected and immediately stored at −80° C. for target gene analysis.
Parts of visceral adipose and liver specimens were fixed with formalin (200 g/kg) neutral buffered solution and embedded in paraffin. A series of 8 μm-thick sections was cut and stained with hematoxylin and eosin. For microscopic examination, a microscope (Olympus BX51, Olympus, Tokyo, Japan) was used and the images were photographed.
On the basis of previous study, the degree of hepatocellular ballooning is defined in TABLE 4: […]

[2] = tested on: PPARα; assay: Liver mRNA by semi-quantitative RT-PCR: PPARα; format: in vivo, C57BL/6J mice; details: HFD-fed mice, oral gavage once daily 4 weeks, AnK 10, 20, 40, Feno 250, Metf 300 mg/kg/day, vs HF group
Excerpt: (§1) The 4-week old male C57BL/6J mice (total amount n=63) were obtained from the National Laboratory Animal Center (Taipei, Taiwan). After acclimatization for one week, all of the mice were randomly assigned into a control (CON) group and a high-fat diet (HFD) group. […] After HFD feeding for 8 weeks, the HFD group was randomly subdivided into six groups (n=9 per group) receiving different treatments and fed on HFD. […] The HF+AnK1, HF+AnK2, and HF+AnK3 groups are collectively termed AnK-treated HFD groups in the following examples. The CON mice were administered vehicle. All treatments were administered via oral gavage once daily. After administration for 4 weeks, all mice were fasted 12 hours, and blood was collected from the retro-orbital sinus under ether anesthesia. […]
Total RNA from liver tissue of mice was isolated with a Trizol Reagent (Molecular Research Center, Inc., Cincinnati, Ohio, USA) according to the manufacturer's instructions. The integrity of the extracted total RNA was examined by 2% agarose gel electrophoresis, and the RNA concentration was determined by the ultraviolet (UV) light absorbency at 260 nm and 280 nm (Spectrophotometer U-2800A, Hitachi). […]
Levels of mRNA of target genes were quantified by semi-quantitative reverse transcription polymerase chain reaction (RT-PCR). […] PCR products were analyzed by 2% agarose gel and stained with ethidium bromide.

[3] = tested on: PPARγ; assay: Western blotting of PPARγ in adipose tissue; format: in vivo, C57BL/6J mice; details: HFD-fed mice, AnK 10, 20, 40, Feno 250, Metf 300 mg/kg/day, vs HF group
Excerpt: as §1, with “anesthesia. At the end of the experiment, the mice were sacrificed via carbon dioxide inhalation.” for “anesthesia.”
About 0.1 g of liver tissue, skeletal muscle, or adipose tissue was used for the homogenate samples. […] The protein concentration in supernatant was determined with a BCA protein assay kit (Thermo Scientific, Rockford, Ill., USA). […] Immunoreactive bands were detected with ECL reagent kit (GE Healthcare BioSciences, Buckinghamshire, UK). The intensity of Western blot signals was analyzed using AlphaEase FC software (Alpha Innotech Corporation, Randburg, South Africa). […]

[4] = tested on: human neutrophils; details: concentration-dependent 1˜25 mM; induced by fMLP and TPA in human neutrophils; cited from earlier work

Question: For `CN(C)C(=N)N=C(N)N` [Metf, metformin, reference compound], which “Hepatocellular ballooning Mean score” value ([1]; HF + Metf: metformin 300 mg/kg/day oral gavage 4 weeks) is on record?
Answer: The value was 0.7 ± 0.2.

Question: And the “PPARα mRNA levels” value [2]?
Answer: Its value is “increased”.

Question: With `C=C(CC[C@@H](C)[C@H]1CC[C@H]2C3=C(C(=O)C[C@]12C)[C@@]1(C)CC[C@@H](O)[C@](C)(O)[C@@H]1C[C@@H]3O)C(C)C(=O)O` (stereo partly drawn) [AnK, 3α,4β,7β-trihydroxy-4α-methylergosta-8,24(28)-dien-11-on-25S-26-oic acid] as the compound, how does the “Hepatocellular ballooning Mean score” value ([1]; HF + AnK1: AnK 10 mg/kg/day oral gavage 4 weeks) read?
Answer: Its value is 0.7 ± 0.2.

Question: What about the “Hepatocellular ballooning Mean score” value ([1]; HF + AnK2: AnK 20 mg/kg/day oral gavage 4 weeks) of the same compound?
Answer: Its value is 0.5 ± 0.2.

Question: What about the “Hepatocellular ballooning Mean score” value ([1]; HF + AnK3: AnK 40 mg/kg/day oral gavage 4 weeks) of the same compound?
Answer: The value was 0.4 ± 0.2.

Question: What about the “PPARα mRNA levels” value [2] of the same compound?
Answer: The value was “increased”.

Question: What about the “expression levels of PPARγ (protein)” value [3] of the same compound?
Answer: Its value is “significantly reduced”.

Question: And the “anti-inflammatory effects (modulation of leukocyte activity, inhibition of reactive oxygen species production)” value [4]?
Answer: The value was “anti-inflammatory effects”.
